In patent US9738655B2, “Tetrahydroisoquinolines containing substituted azoles as factor XIa inhibitors” (BRISTOL-MYERS SQUIBB COMPANY, priority 2013, dated 2017):
Where a name gives a salt, the structure may show the parent alone. Read-outs that look alike come from different tables or passages of the source.

Assays:
[1] = biological target: purified human Factor XIa (Homo sapiens (Human), UniProt P03951); assay: Factor XIa enzyme inhibition assay (chromogenic substrate S-2366)
[2] = biological target: purified human plasma kallikrein (Homo sapiens (Human), UniProt P03952); assay: Plasma kallikrein enzyme inhibition assay (chromogenic substrate S-2302); type: biochemical
Sequence of purified human plasma kallikrein (P03952 391-638): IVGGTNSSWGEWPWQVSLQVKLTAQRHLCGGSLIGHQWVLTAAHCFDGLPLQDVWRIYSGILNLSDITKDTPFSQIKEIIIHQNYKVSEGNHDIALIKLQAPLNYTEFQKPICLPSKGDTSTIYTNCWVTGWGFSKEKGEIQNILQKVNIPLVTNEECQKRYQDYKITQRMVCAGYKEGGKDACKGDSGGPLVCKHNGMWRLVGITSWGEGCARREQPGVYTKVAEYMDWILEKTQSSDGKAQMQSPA
Sequence of purified human plasma kallikrein (P03952 20-390 partner): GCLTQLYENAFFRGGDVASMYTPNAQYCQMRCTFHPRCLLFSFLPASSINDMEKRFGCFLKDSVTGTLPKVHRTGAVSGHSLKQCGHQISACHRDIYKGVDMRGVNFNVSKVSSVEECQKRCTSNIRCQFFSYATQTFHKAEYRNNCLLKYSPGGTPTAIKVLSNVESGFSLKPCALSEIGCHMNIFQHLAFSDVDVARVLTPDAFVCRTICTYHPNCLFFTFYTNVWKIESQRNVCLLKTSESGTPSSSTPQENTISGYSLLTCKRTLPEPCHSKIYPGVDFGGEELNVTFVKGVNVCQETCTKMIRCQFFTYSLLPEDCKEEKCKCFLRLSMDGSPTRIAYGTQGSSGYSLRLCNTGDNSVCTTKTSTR
Experimental: The effectiveness of compounds of the present invention as inhibitors of the coagulation Factors XIa, VIIa, IXa, Xa, XIIa, plasma kallikrein or thrombin, can be determined using a relevant purified serine protease, respectively, and an appropriate synthetic substrate. The rate of hydrolysis of the chromogenic or fluorogenic substrate by the relevant serine protease was measured both in the absence and presence of compounds of the present invention. […] A decrease in the rate of absorbance or fluorescence change in the presence of inhibitor is indicative of enzyme inhibition. […] The results of this assay are expressed as the inhibitory constant, Ki.
Values of Ki were determined by allowing the protease to react with the substrate in the presence of the inhibitor.
The following relationships were used to calculate Ki values: (Vmax*S)/(Km+S); (vo−vs)/vs=I/(Ki(1+S/Km)) for a competitive inhibitor with one binding site; or vs/vo=A+((B−A)/1+((IC50/(I)n))); and Ki−IC50/((1+S/Km) for a competitive inhibitor where:

[3] = read-out: Factor XIa Ki, measured at 25° C.
[4] = measured at 25° C. (no asterisk)

Sequence of purified human Factor XIa (P03951 388-625): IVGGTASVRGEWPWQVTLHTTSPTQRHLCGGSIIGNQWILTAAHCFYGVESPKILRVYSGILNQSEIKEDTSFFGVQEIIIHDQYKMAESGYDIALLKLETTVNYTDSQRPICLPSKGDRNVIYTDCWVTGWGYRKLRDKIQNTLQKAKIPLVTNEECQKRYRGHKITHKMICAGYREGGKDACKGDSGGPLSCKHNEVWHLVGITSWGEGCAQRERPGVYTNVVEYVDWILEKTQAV
Sequence of purified human Factor XIa (P03951 19-387 partner): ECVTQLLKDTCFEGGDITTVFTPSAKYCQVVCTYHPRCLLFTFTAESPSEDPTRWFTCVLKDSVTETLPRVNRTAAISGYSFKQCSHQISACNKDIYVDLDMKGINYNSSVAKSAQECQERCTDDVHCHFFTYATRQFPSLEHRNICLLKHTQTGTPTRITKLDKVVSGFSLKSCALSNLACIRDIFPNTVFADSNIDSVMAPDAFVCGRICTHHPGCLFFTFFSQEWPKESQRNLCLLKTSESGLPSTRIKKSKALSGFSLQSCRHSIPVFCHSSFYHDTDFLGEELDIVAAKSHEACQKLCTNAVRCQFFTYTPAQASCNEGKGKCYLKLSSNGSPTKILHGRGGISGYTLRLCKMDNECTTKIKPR

| SMILES | Ki [1, 3] [nM] | Ki [2, 4] [nM] | Ki [1] [nM] | Ki ([2]; measured at 37° C. (*)) [nM] |
| --- | --- | --- | --- | --- |
| CN(C)C1CCN(c2cccc3c2CCN(C(=O)c2cn(-c4cccc(Cl)c4F)nn2)[C@@H]3C(=O)Nc2ccc(C(N)=O)cc2)CC1 [Example 101, (S)-N-(4-Carbamoylphenyl)-2-(1-(3-chloro-2-fluorophenyl)-1H-1,2,3-triazole-4-carbonyl)-5-(4-(dimethylamino)piperidin-1-yl)-1,2,3,4-tetrahydroisoquinoline-1-carboxamide, bis-TFA salt] | < 5 | 1.75 |  |  |
| CN(C)C1CCN(c2cccc3c2CCN(C(=O)c2cn(-c4cccc(Cl)c4F)nn2)C3C(=O)Nc2ccc(-c3cn[nH]c3)cc2)CC1 (stereo not shown) [Example 102, N-(4-(1H-Pyrazol-4-yl)phenyl)-2-(1-(3-chloro-2-fluorophenyl)-1H-1,2,3-triazole-4-carbonyl)-5-(4-(dimethylamino)piperidin-1-yl)-1,2,3,4-tetrahydroisoquinoline-1-carboxamide, bis-TFA salt] | < 5 | 1.39 |  |  |
| CN(C)C1CCN(c2cccc3c2CCN(C(=O)c2cn(-c4cccc(Cl)c4F)nn2)[C@H]3C(=O)Nc2ccc(-c3cn[nH]c3)cc2)CC1 [Example 103, (R)-N-(4-(1H-Pyrazol-4-yl)phenyl)-2-(1-(3-chloro-2-fluorophenyl)-1H-1,2,3-triazole-4-carbonyl)-5-(4-(dimethylamino)piperidin-1-yl)-1,2,3,4-tetrahydroisoquinoline-1-carboxamide, bis-TFA salt] | 17.9 | 34 |  |  |
| CN(C)C1CCN(c2cccc3c2CCN(C(=O)c2cn(-c4cccc(Cl)c4F)nn2)[C@@H]3C(=O)Nc2ccc(-c3cn[nH]c3)cc2)CC1 [Example 104, (S)-N-(4-(1H-Pyrazol-4-yl)phenyl)-2-(1-(3-chloro-2-fluorophenyl)-1H-1,2,3-triazole-4-carbonyl)-5-(4-(dimethylamino)piperidin-1-yl)-1,2,3,4-tetrahydroisoquinoline-1-carboxamide, bis-TFA salt] | < 5 | 0.96 |  |  |
| CN1CCC2(CCN(c3cccc4c3CCN(C(=O)c3cn(-c5cccc(Cl)c5F)nn3)C4C(=O)Nc3ccc(C(=O)O)cc3)CC2)C1=O (stereo not shown) [Example 106, 4-(2-(1-(3-Chloro-2-fluorophenyl)-1H-1,2,3-triazole-4-carbonyl)-5-(2-methyl-1-oxo-2,8-diazaspiro[4.5]decan-8-yl)-1,2,3,4-tetrahydroisoquinoline-1-carboxamido)benzoic acid, TFA salt] | < 5 | 7.58 |  |  |
| CN1CCC2(CCN(c3cccc4c3CCN(C(=O)c3cnn(-c5cccc(Cl)c5F)c3)C4C(=O)Nc3ccc(C(=O)O)cc3)CC2)C1=O (stereo not shown) [Example 107, 4-(2-(1-(3-Chloro-2-fluorophenyl)-1H-pyrazole-4-carbonyl)-5-(2-methyl-1-oxo-2,8-diazaspiro[4.5]decan-8-yl)-1,2,3,4-tetrahydroisoquinoline-1-carboxamido)benzoic acid, TFA salt] | < 5 | 12.5 |  |  |
| N#Cc1cccc2c1CCN(C(=O)c1cn(-c3cccc(Cl)c3F)nn1)C2C(=O)Nc1ccc(C(=O)O)cc1 (stereo not shown) [Example 108, 4-(2-(1-(3-Chloro-2-fluorophenyl)-1H-1,2,3-triazole-4-carbonyl)-5-cyano-1,2,3,4-tetrahydroisoquinoline-1-carboxamido)benzoic acid] | 48.8 | 50 |  |  |
| O=C(O)c1ccc(NC(=O)C2c3cccc(Br)c3CCN2C(=O)c2cn(-c3cccc(Cl)c3F)nn2)cc1 (stereo not shown) [Example 110, 4-(5-Bromo-2-(1-(3-chloro-2-fluorophenyl)-1H-1,2,3-triazole-4-carbonyl)-1,2,3,4-tetrahydroisoquinoline-1-carboxamido)benzoic acid] | 72.7 | 23 |  |  |
| O=C(O)c1ccc(NC(=O)C2c3cccc(OC4CCNCC4)c3CCN2C(=O)c2cn(-c3cccc(Cl)c3F)nn2)cc1 (stereo not shown) [Example 112, 4-(2-(1-(3-Chloro-2-fluorophenyl)-1H-1,2,3-triazole-4-carbonyl)-5-(piperidin-4-yloxy)-1,2,3,4-tetrahydroisoquinoline-1-carboxamido)benzoic acid, TFA salt] | < 5 | 3.16 |  |  |
| CCOC(=O)Cc1ccc(NC(=O)C2c3cccc(-c4ccc(C(=O)NC)nc4)c3CCN2C(=O)c2cn(-c3cccc(Cl)c3F)nn2)cc1 (stereo not shown) [Example 116, Ethyl 2-(4-(2-(1-(3-Chloro-2-fluorophenyl)-1H-1,2,3-triazole-4-carbonyl)-5-(6-(methylcarbamoyl)pyridin-3-yl)-1,2,3,4-tetrahydroisoquinoline-1-carboxamido)phenyl)acetate, TFA salt] | 13.6 | 128 |  |  |
| CNC(=O)c1ccc(-c2cccc3c2CCN(C(=O)c2cn(-c4cccc(Cl)c4F)nn2)C3C(=O)Nc2ccc(CC(=O)O)cc2)cn1 (stereo not shown) [Example 117, 2-(4-(2-(1-(3-Chloro-2-fluorophenyl)-1H-1,2,3-triazole-4-carbonyl)-5-(6-(methylcarbamoyl)pyridin-3-yl)-1,2,3,4-tetrahydroisoquinoline-1-carboxamido)phenyl)acetic acid, TFA salt] | < 5 | 16.3 |  |  |
| COC1CCN(c2cccc3c2CCN(C(=O)c2cn(-c4cccc(Cl)c4F)nn2)C3C(=O)Nc2ccccc2)CC1 (stereo not shown) [Example 118, 2-(1-(3-Chloro-2-fluorophenyl)-1H-1,2,3-triazole-4-carbonyl)-5-(4-methoxypiperidin-1-yl)-N-phenyl-1,2,3,4-tetrahydroisoquinoline-1-carboxamide, TFA salt] | 38 |  |  | 250 |
| O=C(Nc1ccccc1)C1c2cccc(Br)c2CCN1C(=O)c1cn(-c2cccc(Cl)c2F)nn1 (stereo not shown) [Example 119, 5-Bromo-2-(1-(3-chloro-2-fluorophenyl)-1H-1,2,3-triazole-4-carbonyl)-N-phenyl-1,2,3,4-tetrahydroisoquinoline-1-carboxamide] | 4440 |  |  | 1100 |
| O=C(Nc1ccc(CO)cc1)C1c2cccc(Br)c2CCN1C(=O)c1cn(-c2cccc(Cl)c2F)nn1 (stereo not shown) [Example 120, 5-Bromo-2-(1-(3-chloro-2-fluorophenyl)-1H-1,2,3-triazole-4-carbonyl)-N-(4-(hydroxymethyl)phenyl)-1,2,3,4-tetrahydroisoquinoline-1-carboxamide] | 3940 |  |  | 517 |
| COC1CCN(c2cccc3c2CCN(C(=O)c2cn(-c4cccc(Cl)c4F)nn2)[C@H]3C(=O)Nc2ccc(CO)cc2)CC1 [Example 121, (R)-2-(1-(3-Chloro-2-fluorophenyl)-1H-1,2,3-triazole-4-carbonyl)-N-(4-(hydroxymethyl)phenyl)-5-(4-methoxypiperidin-1-yl)-1,2,3,4-tetrahydroisoquinoline-1-carboxamide] | 1050 |  |  | 7900 |
| O=C(O)c1ccc(NC(=O)C2c3cccc(OC4COC4)c3CCN2C(=O)c2cn(-c3cccc(Cl)c3F)nn2)cc1 (stereo not shown) [Example 123, 4-(2-(1-(3-Chloro-2-fluorophenyl)-1H-1,2,3-triazole-4-carbonyl)-5-(oxetan-3-yloxy)-1,2,3,4-tetrahydroisoquinoline-1-carboxamido)benzoic acid] | 7.69 |  |  | 21.1 |

Second part, the compound after the results:

| Ki [1, 3] [nM] | Ki [2, 4] [nM] | Ki [1] [nM] | Ki ([2]; measured at 37° C. (*)) [nM] | SMILES |
| --- | --- | --- | --- | --- |
| 6.69 | 5.2 |  |  | Cc1nc(-c2ccc(NC(=O)C3c4cccc(N5CCC(N(C)C)CC5)c4CCN3C(=O)c3cn(-c4cccc(Cl)c4F)nn3)cc2)no1 (stereo not shown) [Example 98, 2-(1-(3-Chloro-2-fluorophenyl)-1H-1,2,3-triazole-4-carbonyl)-5-(4-(dimethylamino)piperidin-1-yl)-N-(4-(5-methyl-1,2,4-oxadiazol-3-yl)phenyl)-1,2,3,4-tetrahydroisoquinoline-1-carboxamide, bis-TFA salt] |
| < 5 | 2.74 |  |  | CN(C)C1CCN(c2cccc3c2CCN(C(=O)c2cn(-c4cccc(Cl)c4F)nn2)C3C(=O)Nc2ccc(C(N)=O)cc2)CC1 (stereo not shown) [Example 99, N-(4-Carbamoylphenyl)-2-(1-(3-chloro-2-fluorophenyl)-1H-1,2,3-triazole-4-carbonyl)-5-(4-(dimethylamino)piperidin-1-yl)-1,2,3,4-tetrahydroisoquinoline-1-carboxamide, bis-TFA salt] |
| 289 | 494 |  |  | CN(C)C1CCN(c2cccc3c2CCN(C(=O)c2cn(-c4cccc(Cl)c4F)nn2)[C@H]3C(=O)Nc2ccc(C(N)=O)cc2)CC1 [Example 100, (R)-N-(4-Carbamoylphenyl)-2-(1-(3-chloro-2-fluorophenyl)-1H-1,2,3-triazole-4-carbonyl)-5-(4-(dimethylamino)piperidin-1-yl)-1,2,3,4-tetrahydroisoquinoline-1-carboxamide, bis-TFA salt] |
| < 5 | 1.69 |  |  | CN(C)C1CCN(c2cccc3c2CCN(C(=O)c2cn(-c4cccc(Cl)c4F)nn2)C3C(=O)Nc2ccc(-c3nnn[nH]3)cc2)CC1 (stereo not shown) [Example 105, N-(4-(1H-Tetrazol-5-yl)phenyl)-2-(1-(3-chloro-2-fluorophenyl)-1H-1,2,3-triazole-4-carbonyl)-5-(4-(dimethylamino)piperidin-1-yl)-1,2,3,4-tetrahydroisoquinoline-1-carboxamide, bis-TFA salt] |
| 14.5 | 2.29 |  |  | NCc1cccc2c1CCN(C(=O)c1cn(-c3cccc(Cl)c3F)nn1)C2C(=O)Nc1ccc(C(=O)O)cc1 (stereo not shown) [Example 109, 4-(5-(Aminomethyl)-2-(1-(3-chloro-2-fluorophenyl)-1H-1,2,3-triazole-4-carbonyl)-1,2,3,4-tetrahydroisoquinoline-1-carboxamido)benzoic acid, TFA salt] |
|  | 11.9 | < 5 |  | COCCOc1cccc2c1CCN(C(=O)c1cn(-c3cccc(Cl)c3F)nn1)C2C(=O)Nc1ccc(C(=O)O)cc1 (stereo not shown) [Example 113, 4-(2-(1-(3-Chloro-2-fluorophenyl)-1H-1,2,3-triazole-4-carbonyl)-5-(2-methoxyethoxy)-1,2,3,4-tetrahydroisoquinoline-1-carboxamido)benzoic acid] |
| 16.8 |  |  | 99.8 | COC1CCN(c2cccc3c2CCN(C(=O)c2cn(-c4cccc(Cl)c4F)nn2)[C@@H]3C(=O)Nc2ccc(CO)cc2)CC1 [Example 122, (S)-2-(1-(3-Chloro-2-fluorophenyl)-1H-1,2,3-triazole-4-carbonyl)-N-(4-(hydroxymethyl)phenyl)-5-(4-methoxypiperidin-1-yl)-1,2,3,4-tetrahydroisoquinoline-1-carboxamide] |
